From US10471059B2, “Compositions and methods of using tyrosine kinase inhibitors” (YALE UNIVERSITY, priority 2015, dated 2019)
“Also recorded” adds a separate entry of the source.

Columns and labels:
Ptpn11^D61G/+ mice = test: Growth, facial dysmorphia and splenomegaly after postnatal dasatinib; type: in vivo; settings: postnatal 0.1 mg/kg/day, NS mice
Description: Differences within treatment groups were significant (p<0.001, Two-way ANOVA test) from 3-weeks to 8-weeks old. FIG. 19b is a graph showing body weight measured at P42. FIG. 19c is a graph showing body length measured at P42. FIG. 19d is a graph showing body weight measured at P56. […]. FIG. 19e is a graph showing body length measured at P56.
(n=10˜16 for each group; Two-way ANOVA test).
All data represent mean±SEM. *, p<0.05; ***, p<0.001.
(§1) Vehicle-injected mice served as control.

[1] = tested on: cardiomyocytes isolated from the heart of WT and Ptpn11^D61G/+ mice; test: Ca2+ excitation-contraction coupling of cardiomyocytes isolated from treated mice; type: in vivo
Procedure: as §1
Enzymatic Digestion of Cardiac Tissue for Single-Cell Analysis—Cardiomyocytes from 8 week old mice were isolated by a Langendorff procedure, modified from Xianghua Xu, et al. J Vis Exp. 2009; (28):1308. In brief, the hearts were quickly excised and cannulated to a Langendorff apparatus where they were perfused with 37° C. Ca^2+-free perfusion buffer (in 25 mM HEPES, 118 mM NaCl, 4.8 mM KCl, 2.0 mM KH2PO4, 2.55 mM MgSO4, 10 mM BDM and 10 mM Glucose). To digest the tissue, the heart was perfused with buffer containing 0.5 mg/mL Liberase TH (Roche Applied Science, Penzberg, Germany). After ˜10 min, the heart was removed from the Langendorff apparatus and the right ventricle and atria removed. The left ventricle was isolated, cut into small pieces and digested further at 37° C. digestion solution with mechanical agitation for 5-10 min, and then gently triturated to liberate individual cells. The remaining tissue chunks were transferred to fresh digestion buffer and the process was repeated up to 6 times, or until all tissue was digested. Cells were removed from collagenase by gentle centrifugation and resuspended in several washing steps of buffer containing FBS and gradually reintroduced to calcium (0.05-1.1 mM) through step-wise additions of concentrated CaCl2 solution. Cells were allowed to rest for at least 1 h before imaging.
Cardiomyocyte Functional Characterization—Cardiomyocytes were imaged in Tyrodes solution ([…] NaCl: 140, KCl: 5.4, CaCl2:1.8, MgCl2:1, HEPES: 25 mM, glucose: 10 mM). Cell pellets were loaded for 15 minutes in the dark with Tyrodes supplemented with 2.5 μM Fura-2 AM complimented with pluronic acid (20% w/v), for calcium fluorescence imaging. After 15 minutes of loading, the cells were resuspended in fresh Tyrodes solution and allowed to settle until imaging. Cardiomyocyte Ca^2+ transients and unloaded shortening contractions were measured using an inverted microscope (Nikon Eclipse, Chiyoda, Tokyo) equipped with a temperature controlled perfusion bath (Cell MicroControls, Norfolk, Va.) under constant perfusion of 37° C. Tyrodes solution. Cells were field-stimulated at 1 Hz. Contractile events were imaged in real-time using a sarcomere length camera system (HVSL, Aurora Scientific, Ontario, Canada). Only rod-shaped cells with well-defined sarcomere striations that contracted when stimulated were selected for measurement. Sarcomere length was measured and recorded for ten consecutive beats and subsequently averaged across beats to produce a single waveform. Calcium transient measurements were recorded simultaneously using alternating excitation wavelengths of 340 and 380 nm generated at an overall rate of 100 Hz by a RatioMaster fluorescence system (PTI, Birmingham, N.J.). Fluorescence emission was filtered at a center wavelength of 510 nm and quantified to obtain responses to the alternating excitation wavelengths (F340 and F380, respectively). Ca^2+ transients were reported as the interpolated ratio of the two fluorescence intensities (F340/F380) at each time point. Data were recorded using a DAP5216a data acquisition system (Microstar Laboratories, Bellevue, Wash.) and processed using custom software written in MATLAB (MathWorks, Natick, Mass.). Peak sarcomere length shortening (Peak SL shortening), time to peak shortening (TTP), time to 50% re-lengthening (RT50), the magnitude of the calcium transient (Ca^2+ Rmag:Max F340/F380−Min F340/F380) and the rate of calcium decay, Tau (TauCa2+) were computed.

[2] = postnatal dasatinib, Ptpn11D61G/+ mice, P56, n = 162 cells, n = 3 mice, Mean ± SEM
[3] = postnatal dasatinib, WT mice, P56, n = 111 cells, n = 3 mice, Mean ± SEM

Cc1nc(Nc2ncc(C(=O)Nc3c(C)cccc3Cl)s2)cc(N2CCN(CCO)CC2)n1.O [Dasatinib, N-(2-chloro-6-methylphenyl)-2-[[6-[4-(2-hydroxyethyl)-1-piperazinyl]-2-methyl-4-pyrimidinyl]amino]-5-thiazole carboxamide monohydrate]
growth (body weight, body length) (Ptpn11^D61G/+ mice): did not improve
facial dismorphism (Ptpn11^D61G/+ mice; monohydrate): did not improve
splenomegaly (Ptpn11^D61G/+ mice; monohydrate): did not improve; also recorded: did not rescue
Ca2+ signaling during excitation-contraction coupling ([1]; cardiomyocytes from dasatinib treated Ptpn11D61G/+ mice): normal
difference in relative calcium release (Rmag Ca2+) between NS and wild type cardiomyocytes ([1]; postnatal dasatinib, NS mice): substantially ameliorated
differences in fractional shortening of sarcomeres between NS and wild type cardiomyocytes ([1]; postnatal dasatinib, NS mice): completely restored
Ca^2+ TTP (Time to peak, F340/380) [1, 2]: 43.22 ± 0.90 ms
Diastolic Ca^2+ (MinF340/380) [1, 2]: 0.98 ± 0.01
Peak Shortening [1, 2]: 6.59 ± 0.18 %
Rmag Ca^2+ (ΔF340/380) [1, 2]: 0.14 ± 0.01
Shortening RT50 (Time from peak tension to 50% relaxation) [1, 2]: 37.02 ± 0.62 ms
Shortening RT90 (Time from peak tension to 90% relaxation) [1, 2]: 99.24 ± 3.23 ms
Shortening TTP (Time to peak) [1, 2]: 69.32 ± 0.79 ms
Systolic Ca^2+ (Max F340/380) [1, 2]: 1.12 ± 0.01
Tau Ca^2+ [1, 2]: 116.52 ± 2.36 ms
Ca^2+ TTP (Time to peak, F340/380) [1, 3]: 42.75 ± 1.21 ms
Diastolic Ca^2+ (MinF340/380) [1, 3]: 0.94 ± 0.01
Peak Shortening [1, 3]: 6.04 ± 0.23 %
Rmag Ca^2+ (ΔF340/380) [1, 3]: 0.11 ± 0.01
Shortening RT50 (Time from peak tension to 50% relaxation) [1, 3]: 41.11 ± 0.96 ms
Shortening TTP (Time to peak) [1, 3]: 71.52 ± 0.90 ms
Systolic Ca^2+ (Max F340/380) [1, 3]: 1.06 ± 0.01
Tau Ca^2+ [1, 3]: 105.85 ± 2.35 ms
